Data: patent US9694002B2, “Substituted benzamides and methods of use thereof” (GENENTECH, INC., priority 2013, dated 2017)
Where a name gives a salt, the structure may show the parent alone. Read-outs that look alike come from different tables or passages of the source.

Columns and labels:
[1] = target: NaV1.7 (Homo sapiens (Human), UniProt Q15858); assay: Electrophysiological assay (EP), patch voltage clamp, NaV1.7; format: cell-based; details: HEK-293 cells stably expressing human NaV1.7 with β1 subunit, whole-cell patch clamp, held at −60 mV (inactivated state)
Protocol: NaV1.7 and NaV1.5 cDNAs (NM_002977 and AG 137587; SCN5A, respectively) were stably expressed in HEK-293 cells.
Control sodium currents were measured in 0.5% DMSO.
Series resistance compensation was applied (60-80%).

[2] = target: hNav1.7 (Homo sapiens (Human), UniProt Q15858); assay: Ligand binding assay: tritiated sulfonamide binding to membranes from cells expressing hNav1.7 and the β1 subunit
[3] = read-out: Ligand Binding Assay, competition with 100 pM [3H]compound, membranes with hNav1.7 and β1 subunit, room temperature, 18 h

hNav1.7, sequence (Q15858 whole entry): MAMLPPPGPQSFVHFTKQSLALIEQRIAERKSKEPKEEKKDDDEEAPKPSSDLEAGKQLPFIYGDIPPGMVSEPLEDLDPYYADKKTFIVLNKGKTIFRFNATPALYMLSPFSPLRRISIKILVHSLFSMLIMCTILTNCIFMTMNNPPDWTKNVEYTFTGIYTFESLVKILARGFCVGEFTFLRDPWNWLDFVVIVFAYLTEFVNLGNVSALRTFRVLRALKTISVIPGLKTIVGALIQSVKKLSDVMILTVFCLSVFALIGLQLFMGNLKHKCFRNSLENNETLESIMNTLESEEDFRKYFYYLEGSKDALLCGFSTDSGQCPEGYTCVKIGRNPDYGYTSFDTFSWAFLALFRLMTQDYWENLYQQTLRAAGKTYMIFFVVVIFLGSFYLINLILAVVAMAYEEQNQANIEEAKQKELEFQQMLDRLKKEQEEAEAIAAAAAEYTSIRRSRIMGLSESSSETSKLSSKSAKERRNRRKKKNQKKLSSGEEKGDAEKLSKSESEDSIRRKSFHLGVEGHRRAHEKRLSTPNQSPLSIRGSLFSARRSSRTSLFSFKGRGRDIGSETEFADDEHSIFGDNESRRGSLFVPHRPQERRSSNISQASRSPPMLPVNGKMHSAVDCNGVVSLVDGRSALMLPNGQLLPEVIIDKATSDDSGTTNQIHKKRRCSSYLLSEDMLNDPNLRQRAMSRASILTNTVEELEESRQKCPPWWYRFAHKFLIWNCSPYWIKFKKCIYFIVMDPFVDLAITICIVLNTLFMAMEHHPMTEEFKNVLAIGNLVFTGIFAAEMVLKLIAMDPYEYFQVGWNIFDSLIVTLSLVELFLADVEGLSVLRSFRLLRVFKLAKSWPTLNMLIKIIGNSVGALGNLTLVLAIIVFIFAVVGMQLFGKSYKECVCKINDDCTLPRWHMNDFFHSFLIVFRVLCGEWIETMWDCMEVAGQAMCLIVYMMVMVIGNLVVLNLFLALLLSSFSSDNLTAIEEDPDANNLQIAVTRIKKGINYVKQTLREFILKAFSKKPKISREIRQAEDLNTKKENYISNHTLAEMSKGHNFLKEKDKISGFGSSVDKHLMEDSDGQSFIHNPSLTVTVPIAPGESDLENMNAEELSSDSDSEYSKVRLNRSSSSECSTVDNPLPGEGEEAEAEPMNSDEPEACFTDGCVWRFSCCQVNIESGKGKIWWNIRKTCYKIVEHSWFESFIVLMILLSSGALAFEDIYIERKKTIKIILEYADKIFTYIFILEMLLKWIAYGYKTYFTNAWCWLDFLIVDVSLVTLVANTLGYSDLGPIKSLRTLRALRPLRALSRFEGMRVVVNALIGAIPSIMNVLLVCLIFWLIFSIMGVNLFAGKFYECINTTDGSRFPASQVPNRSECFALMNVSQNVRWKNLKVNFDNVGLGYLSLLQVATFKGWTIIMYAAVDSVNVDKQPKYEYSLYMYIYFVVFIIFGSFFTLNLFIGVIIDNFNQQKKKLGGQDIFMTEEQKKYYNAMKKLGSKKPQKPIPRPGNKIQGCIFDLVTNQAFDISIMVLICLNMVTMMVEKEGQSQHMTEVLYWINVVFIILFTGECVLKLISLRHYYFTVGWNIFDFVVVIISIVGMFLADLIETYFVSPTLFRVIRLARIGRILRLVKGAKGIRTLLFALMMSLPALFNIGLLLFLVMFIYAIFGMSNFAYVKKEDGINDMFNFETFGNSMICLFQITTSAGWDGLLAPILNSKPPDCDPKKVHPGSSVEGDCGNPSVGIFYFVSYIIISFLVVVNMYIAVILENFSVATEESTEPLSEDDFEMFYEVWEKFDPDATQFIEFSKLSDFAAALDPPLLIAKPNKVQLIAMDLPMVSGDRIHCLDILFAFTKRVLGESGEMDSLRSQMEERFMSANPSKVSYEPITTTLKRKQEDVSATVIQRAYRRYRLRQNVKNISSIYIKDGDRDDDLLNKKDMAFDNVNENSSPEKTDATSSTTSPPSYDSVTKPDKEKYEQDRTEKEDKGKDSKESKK
hNav1.7, sequence (Q07699 19-218 partner): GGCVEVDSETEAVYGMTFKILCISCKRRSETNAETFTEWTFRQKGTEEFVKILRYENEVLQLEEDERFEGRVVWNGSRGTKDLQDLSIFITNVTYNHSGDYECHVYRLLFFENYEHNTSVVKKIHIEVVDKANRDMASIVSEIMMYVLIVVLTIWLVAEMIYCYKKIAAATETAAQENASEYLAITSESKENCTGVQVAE
NaV1.7, sequence (Q15858 other isoform, or with tags, fused parts or gaps): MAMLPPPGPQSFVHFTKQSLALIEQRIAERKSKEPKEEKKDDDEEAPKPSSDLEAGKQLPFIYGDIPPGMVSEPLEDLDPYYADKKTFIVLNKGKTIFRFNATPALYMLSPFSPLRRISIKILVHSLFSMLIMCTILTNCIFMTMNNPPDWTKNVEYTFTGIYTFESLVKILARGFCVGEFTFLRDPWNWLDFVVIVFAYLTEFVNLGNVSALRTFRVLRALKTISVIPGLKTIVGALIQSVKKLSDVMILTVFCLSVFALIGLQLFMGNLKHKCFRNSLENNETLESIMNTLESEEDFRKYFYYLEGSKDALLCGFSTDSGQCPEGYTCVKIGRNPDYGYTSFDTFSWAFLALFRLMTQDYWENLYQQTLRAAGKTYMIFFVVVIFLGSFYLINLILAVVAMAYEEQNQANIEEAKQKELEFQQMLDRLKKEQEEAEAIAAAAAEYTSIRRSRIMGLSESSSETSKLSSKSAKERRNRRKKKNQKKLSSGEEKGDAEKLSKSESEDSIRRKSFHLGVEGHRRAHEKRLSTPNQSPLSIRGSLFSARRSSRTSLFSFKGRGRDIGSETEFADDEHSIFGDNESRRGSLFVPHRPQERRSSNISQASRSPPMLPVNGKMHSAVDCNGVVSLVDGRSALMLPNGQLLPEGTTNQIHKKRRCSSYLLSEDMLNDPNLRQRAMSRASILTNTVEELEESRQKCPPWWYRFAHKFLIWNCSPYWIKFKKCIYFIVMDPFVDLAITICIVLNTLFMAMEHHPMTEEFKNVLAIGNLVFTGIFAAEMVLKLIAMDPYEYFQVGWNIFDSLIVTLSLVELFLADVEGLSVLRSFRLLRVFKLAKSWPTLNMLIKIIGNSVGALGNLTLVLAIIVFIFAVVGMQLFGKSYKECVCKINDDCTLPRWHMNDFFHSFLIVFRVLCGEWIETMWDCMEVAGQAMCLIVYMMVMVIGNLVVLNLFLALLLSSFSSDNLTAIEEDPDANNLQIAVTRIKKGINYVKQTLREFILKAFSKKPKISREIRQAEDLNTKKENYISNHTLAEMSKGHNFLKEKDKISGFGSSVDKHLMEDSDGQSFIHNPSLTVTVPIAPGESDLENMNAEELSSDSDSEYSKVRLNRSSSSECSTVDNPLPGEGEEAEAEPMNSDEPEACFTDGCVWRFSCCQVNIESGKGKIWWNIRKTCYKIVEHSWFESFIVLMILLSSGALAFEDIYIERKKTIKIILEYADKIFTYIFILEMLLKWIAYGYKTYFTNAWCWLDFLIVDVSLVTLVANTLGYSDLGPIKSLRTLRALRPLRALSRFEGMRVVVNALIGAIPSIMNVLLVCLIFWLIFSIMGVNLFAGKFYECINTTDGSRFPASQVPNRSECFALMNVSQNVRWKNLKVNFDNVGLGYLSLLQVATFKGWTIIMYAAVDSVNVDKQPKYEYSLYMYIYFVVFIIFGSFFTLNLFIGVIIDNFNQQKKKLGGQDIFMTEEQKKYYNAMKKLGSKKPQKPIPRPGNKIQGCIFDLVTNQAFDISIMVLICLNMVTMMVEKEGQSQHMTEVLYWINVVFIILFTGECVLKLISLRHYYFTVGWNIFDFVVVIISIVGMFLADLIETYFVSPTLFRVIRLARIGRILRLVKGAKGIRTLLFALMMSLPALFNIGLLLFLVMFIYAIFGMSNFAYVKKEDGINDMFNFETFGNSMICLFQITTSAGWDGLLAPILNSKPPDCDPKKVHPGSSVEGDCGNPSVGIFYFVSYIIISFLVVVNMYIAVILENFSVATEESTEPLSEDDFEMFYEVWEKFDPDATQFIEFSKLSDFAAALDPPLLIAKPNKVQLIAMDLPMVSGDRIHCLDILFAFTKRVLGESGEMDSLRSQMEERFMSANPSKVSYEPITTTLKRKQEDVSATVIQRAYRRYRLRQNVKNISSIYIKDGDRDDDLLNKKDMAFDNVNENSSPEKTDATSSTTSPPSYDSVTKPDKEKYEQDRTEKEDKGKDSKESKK
NaV1.7, sequence (Q07699 19-218 partner): as the sequence (Q07699 19-218 partner) above

Row | IC50 [1] | IC50 [2, 3] | IC50 [2] | Molecule
1 |  | 7.4 nM |  | C[C@@H](c1cc(Cl)cc(Cl)c1)N1CCC[C@H](COc2cc(F)c(C(=O)NS(C)(=O)=O)cc2C2CC2)C1 (single isomer, unassigned) [Example 338, trifluoroacetic acid salt]
2 |  | 5.7 nM |  | C[C@@H]1CC[C@@H](COc2cc(F)c(C(=O)NS(C)(=O)=O)cc2C2CC2)CN1[C@@H](C)c1cc(Cl)cc(Cl)c1 (single isomer, unassigned) [Example 342, trifluoroacetic acid salt]
3 |  | 1.9 nM |  | C[C@@H](c1cc(Cl)cc(Cl)c1)N1CCC[C@@H](Oc2cc(F)c(C(=O)NS(C)(=O)=O)cc2C2CC2)C1 [Example 50]
4 |  | 170 nM |  | (R)-5-cyclopropyl-4-((1-(3,5-dichlorobenzyl)-2-oxopiperidin-4-yl)methoxy)-2-fluoro-N-(methylsulfonyl)benzamide [Example 234]

Continued, molecule first:

Row | Molecule | IC50 [1] | IC50 [2, 3] | IC50 [2]
5 | C[C@@H](c1cc(Cl)cc(Cl)c1)N1CCC(COc2cc(F)c(C(=O)NS(=O)(=O)C3CC3)cc2C2CC2)CC1 (single isomer, unassigned) [Example 270] | 5.8 nM | 5 nM | 
6 | C[C@H](c1cc(Cl)cc(Cl)c1)N1CCC[C@H](COc2cc(F)c(C(=O)NS(C)(=O)=O)cc2C2CC2)C1 (single isomer, unassigned) [Example 337, trifluoroacetic acid salt] |  | 11.1 nM | 
7 | O=C(NS(=O)(=O)C1CC1)c1cc(Cl)c(O[C@@H]2CCCN(Cc3ccc(F)cc3Cl)C2)cc1F [Example 39, (R)-5-chloro-4-((1-(2-chloro-4-fluorobenzyl)piperidin-3-yl)oxy)-N-(cyclopropylsulfonyl)-2-fluorobenzamide, trifluoroacetic acid salt] |  | 6.8 nM | 
8 | CS(=O)(=O)NC(=O)c1cc(C2CC2)c(OCC2CCN(Cc3cccc(Cl)c3)CC2)cc1F [Example 92, 4-((1-(3-Chlorobenzyl)piperidin-4-yl)methoxy)-5-cyclopropyl-2-fluoro-N-(methylsulfonyl)benzamide] |  | 30.5 nM | 
9 | CS(=O)(=O)NC(=O)c1cc(C2CC2)c(OCC2CCN(S(=O)(=O)C3COC3)CC2)cc1F [Example 392, 5-cyclopropyl-2-fluoro-N-(methylsulfonyl)-4-((1-(oxetan-3-ylsulfonyl)piperidin-4-yl)methoxy)benzamide] |  | 2060 nM | 
10 | O=C(NS(=O)(=O)C1CC1)c1cc(C2CC2)c(CN2CCC(Oc3ccc(C(F)(F)F)cn3)CC2)cc1F [Example 477, 5-cyclopropyl-N-(cyclopropylsulfonyl)-2-fluoro-4-((4-((5-(trifluoromethyl)pyridin-2-yl)oxy)piperidin-1-yl)methyl)benzamide, trifluoroacetic acid salt] |  | 14.2 nM | 
11 | CS(=O)(=O)NC(=O)c1cc(C2CC2)c(CN2CCN(S(=O)(=O)c3cc(Cl)cc(Cl)c3)CC2)cc1F [Example 526, 5-cyclopropyl-4-((4-((3,5-dichlorophenyl)sulfonyl)piperazin-1-yl)methyl)-2-fluoro-N-(methylsulfonyl)benzamide, trifluoroacetic acid salt] |  |  | 20.2 nM
12 | (S)-5-cyclopropyl-4-((1-(1-(3,5-dichlorophenyl)ethyl)-4-fluoropiperidin-4-yl)methoxy)-2-fluoro-N-(methylsulfonyl)benzamide, trifluoroacetic acid salt [Example 349] |  | 4 nM | 
13 | (S)-5-cyclopropyl-N-(cyclopropylsulfonyl)-4-((1-(1-(3,5-dichlorophenyl)ethyl)-4-fluoropiperidin-4-yl)methoxy)-2-fluorobenzamide [Example 350] |  | 4.5 nM | 
